Assay results as given in patent US6670364B2, “Antagonists of MCP-1 function and methods of use thereof” (Telik, Inc., priority 2001, dated 2003).

Key:
female Lewis rats [1] = assay: Collagen-induced arthritis model in rat, i.p. (Example 23); assay type: in vivo
Procedure: (§1) Collagen-induced arthritis was induced in female Lewis rats as follows. Rats were injected subcutaneously with the emulsion of bovine collagen type 11 (3.3 mg/kg at day 0 and 1.67 mg/kg at day 7) and complete Freund's adjuvant (CFA) at the base of the tail at day 0 and immunized additionally at day 7. The test compounds were administered i.p. at day 0 and then once a day for 18 days or p.o. (methotrexate) at day 0 and then 3 times a week until day 18. Paw swelling was measured by the increased volume of the legs using a plethysmometer.

female Lewis rats [2] = assay: Collagen-induced arthritis model in rat, p.o. (Example 24); assay type: in vivo; details: 1 mg/kg p.o. 3 times a week until day 21 (positive control)
Procedure: as §1, with “p.o.” for “i.p.”, “twice” for “once”, “21” for “18”, “or” for “or p.o. (methotrexate) at day 0 and then”, “21 was also administered p.o. from day 13 to day 21 in another group.” for “18.”

male Wistar rats [3] = assay: Anti-Thy-1 antibody-induced nephritis model, s.c. (Example 19); assay type: in vivo; details: rat; for ED-1 positive cells/glomeruli (mean ± SE): day 7
Procedure: The efficacy of the compounds of the present invention was also evaluated in an animal model of nephritis. This model very closely simulates the conditions found in human mesangial proliferative glomerulonephritis.
Anti-Thy-1 nephritis was induced by intravenous injection of anti-Thy-1-antibody to male Wistar rats. The test compound was subcutaneously administered 2 h before, immediately after, and 5 h after the anti-Thy-1 antibody treatment, and then twice a day for the following 2 days. Anti-MCP-1 antibody was intraperitoneally injected once a day for 3 days. Seven days after the anti-Thy-1 antibody treatment, the rats were sacrificed. The kidneys were perfused with 10% formaldehyde in PBS, surgically removed, and immersed in 10% formaldehyde. The kidneys were then embedded in paraffin for glomerular histopathology or in OCT compound (Miles Inc., Elkhart, Ind.) in liquid nitrogen after immersion in 30% sucrose overnight. Immunohistochemical staining was performed with a mouse anti-rat ED-1 monoclonal antibody. Briefly, 5 μm renal sections were prepared and endogenous peroxidase blocked with 0.3% hydrogen peroxide. The sections were then blocked with Protein Block (DAKO, Japan) and stained with anti-ED-1 antibody for 45 min. The ED-1 antigen was visualized by peroxidase-labeled anti-mouse IgG and diaminobenzidine. The amount of urinary protein was determined with the DC protein assay kit (Bio-Rad, Hercules, Calif.). The effect of a representative test compound on the level of urinary protein excretion and the infiltration of ED-1 positive cells into the glomeruli is shown in Table 10.

apoE-deficient mice = assay: Apolipoprotein E-deficient mouse model of atherosclerosis (Example 20); assay type: in vivo
Procedure: Apolipoprotein E (apoE) is a component of several plasma lipoproteins, including chylomicrons, VLDL, and HDL. Receptor-mediated catabolism of these lipoprotein particles is mediated through the interaction of apoE with the LDL receptor (LDLR) or with LDLR-related protein (LRP). […] The efficacy of the compounds of the present invention was also evaluated using this animal model.
Male, 4 week-old apoE-deficient mice were fed on high-fat diet (15% fat, 1.25% cholesterol). The test compound was administered as food admixture for 8 weeks. At 12 week-old, the mice were fasted for 4 hours and then sacrificed under ether anesthesia. Blood was collected in the presence of heparin, and the hearts were perfused in situ with PBS (pH 7.4), followed by 4% paraformaldehyde for 5 min.
To determine cross-sectional lesion areas, the hearts were embedded in OCT compound and sectioned at 10 μm using cryostat. The sections were stained with oil red O. Each section of the aortic valve was evaluated for oil red O staining by capturing images directly from a RGB camera attached to a light microscope; image analysis was performed with the IPAP-WIN software (Sumika Tekuno, Japan). Five sections were examined for each animal, and the sum of the lesion areas was calculated and expressed as the percent of the total cross-sectional wall area. Total cholesterol was determined with a Determiner assay kit (Kyowa medex, Japan).

ICR male mice = assay: Thioglycollate-induced inflammation model (Example 17); assay type: in vivo, mouse; details: peritoneal cavity 72 h after thioglycollate; 5 mg/kg, subcutaneous
Procedure: 3% Brewer's thioglycollate broth (Difco, Detroit, Mich.) was injected into the peritoneal cavity of ICR male mice, followed by subcutaneous administration of the test compound. The same dose of test compound was again administered immediately after the broth injection and 3 h later. After 72 h, the number of total elicited cells and MOMA2-positive cells in the peritoneal cavity was analyzed using an EPICS XL Beckman Coulter.

hMCP-1 [4] = biological target: T1, hMCP-1 (Homo sapiens, UniProt P13500); assay: Inhibition of MCP-1-induced chemotaxis (96-well chamber, Example 16); assay type: cell-based; details: THP-1 cells, 12.5 nM hMCP-1, 2 h, 96-well microchemotaxis chamber
Procedure: A 96-well microchemotaxis chamber with a 5 μm-pore size, PVP-coated polycarbonate filter membrane (Neuro Probe Inc., Cabin John, Md.) was used for testing. Compounds were prepared as 10 mM stock solution in DMSO. THP-1 cells (2×10^6 cells/mL) were labeled with 5 μM Calcein AM containing 0.1% F127 (Molecular Probe, Eugene, Oreg.) at 37° C. for 30 min, and then pretreated with compound at room temperature for an additional 30 min. […] The filter membrane was placed over the lower chamber, followed by a silicon gasket and the upper chamber. The pretreated THP-1 cells (4×10^5 cells/50 μL of RPMI1640 medium per well) were added to the upper chamber and incubated in 5% CO2 at 37° C. for 2 h. The migrated cells were determined with a fluorescent plate reader (LJL BioSystems, Sunnyvale, Calif.).
Target sequence in this assay (P13500 24-99): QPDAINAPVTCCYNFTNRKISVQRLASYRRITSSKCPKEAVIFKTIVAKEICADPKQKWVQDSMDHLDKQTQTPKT
Target sequence in this assay (P41597 whole entry partner): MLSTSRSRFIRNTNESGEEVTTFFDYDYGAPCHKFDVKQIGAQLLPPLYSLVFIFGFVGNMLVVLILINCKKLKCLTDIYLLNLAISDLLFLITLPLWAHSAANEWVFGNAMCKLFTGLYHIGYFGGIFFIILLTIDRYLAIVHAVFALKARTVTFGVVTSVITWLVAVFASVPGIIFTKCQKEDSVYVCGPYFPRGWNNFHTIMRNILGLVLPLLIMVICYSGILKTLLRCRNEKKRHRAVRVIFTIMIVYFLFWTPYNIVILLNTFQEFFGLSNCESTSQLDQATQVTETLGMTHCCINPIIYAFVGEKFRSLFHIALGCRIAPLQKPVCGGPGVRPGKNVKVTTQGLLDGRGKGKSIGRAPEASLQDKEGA

male Wistar rats [5] = assay: Anti-Thy-1 antibody induced nephritis model, per os (Example 26); assay type: in vivo, rat
Procedure: Anti-Thy-1 nephritis was induced by intravenous injection of anti-Thy-1-antibody to male Wistar rats. The test compound was per os administered 2 h before, immediately after, and 5 h after the anti-Thy-1 antibody treatment, and then twice a day for the following 2 days. Seven days after the anti-Thy-1 antibody treatment, the rats were sacrificed. The amount of urinary protein was determined with the DC protein assay kit (Bio-Rad, Hercules, Calif.).

hMCP-1 [6] = biological target: T1, hMCP-1; assay: Inhibition of MCP-1-induced chemotaxis (48-well chamber, Example 21); assay type: cell-based; design: purchased PeproTech; details: THP-1 cells, 2.5 nM hMCP-1, 48-well chamber, 2 hr
Procedure: A 48-well microchemotaxis chamber with a 5 μm-pore size, PVP-coated polycarbonate filter membrane (Neuro Probe Inc., Cabin John, Md.) was used for testing. Compounds were prepared as 10 mM stock solution in DMSO. THP-1 cells were washed with RPMI 1640 medium supplemented with 0.5% BSA and 25 mM HEPES, pH 7.4, and suspended at a density of 4×10^6 cells/mL in the same medium. A 150 μL aliquot of this suspension was treated with an equal volume of test compound solution and the mixture incubated at 37° C. for 15 min. The lower chamber was loaded with 26 μL of a 2.5 nM solution of hMCP-1 (PeproTech) in medium. The filter membrane was placed over the lower chamber, followed by a silicon rubber gasket and the upper chamber. A 50 μL aliquot of the THP-1 cell suspension containing the test compound was added to the upper chamber and the assembly incubated in a 5% CO2 atmosphere at 37+ C. for 2 hr. The chamber was then disassembled and the cells remaining on the upper surface of the filter were scrapped off with a rubber scrapper. The filter was fixed with methanol, stained with Diff-Quik solution, and mounted on a slide glass. The cells that had migrated across the filter onto the lower surface were then counted by microscopic observation.
Target sequence in this assay (P13500 24-99): as the sequence (P13500 24-99) above

male Lewis rats = assay: Adjuvant arthritis model in rat (Example 22); assay type: in vivo; details: 10 mg/kg p.o. once a day
Procedure: Adjuvant arthritis was induced in male Lewis rats as follows. Complete Freund's adjuvant (CFA) was mixed with PBS and 0.1 ml of the resulting emulsion was injected subcutaneously into the foot pad of the right hind paw (day=0). The test compound was administered p.o. at day 0 and then once a day for 26 days. Paw swelling was measured by the increased thickness of the foot pad.

In the case of `CN(Cc1cnc2nc(N)nc(N)c2n1)c1ccc(C(=O)N[C@@H](CCC(=O)O)C(=O)O)cc1` [methotrexate, reference compound], the “Percent Swelling day 18” value (female Lewis rats [1]; 1 mg/kg p.o. 3 times a week until day 18) is reported as 8.9 ± 1.2 %, the “Percent Swelling day 14” value (female Lewis rats [2]) is reported as −0.4 ± 1.1 % and the “Percent Swelling day 21” value (female Lewis rats [2]) is reported as −0.7 ± 1.0 %.
In the case of `Cc1nn(C)c2ncc(C(=O)NC(=O)Nc3ccc(F)c(C(F)(F)F)c3)cc12` [Compound 11, (1,3-Dimethylpyrazolo[5,4-b]pyridin-5-yl)-N-({[4-fluoro-3-(trifluoromethyl)phenyl]amino}carbonyl)carboxamide], the “Urinary Protein” value (male Wistar rats [3]; 0.1 mg/kg s.c.) is reported as 182.2 ± 28.0 mg/day, the “ED-1 positive cells/glomeruli (mean ± SE)” value (male Wistar rats [3]; 0.1 mg/kg s.c.) is reported as 5.3 ± 0.7 cells/glomeruli and the “Urinary Protein” value (male Wistar rats [3]; 2 mg/kg s.c.) is reported as 117.4 ± 26.3 mg/day. For the same compound, the “ED-1 positive cells/glomeruli (mean ± SE)” value (male Wistar rats [3]; 2 mg/kg s.c.) was 2.3 ± 0.6 cells/glomeruli, the “% Atherosclerotic Lesion (mean ± SD)” value (apoE-deficient mice; 10 mg/kg as food admixture for 8 weeks, high-fat diet, aortic valve sections, oil red O) was 18.72 ± 5.27 % and the “body weight vs control” value (apoE-deficient mice; apoE-deficient mice, 8 weeks treatment, data not shown) was “no significant differences”. The “percent of atherosclerotic lesion area (in words)” value (apoE-deficient mice; vs control group, statistically significant) was “reduced”, the “MOMA2-positive Cells (× 10^6)” value (ICR male mice) was 14.3 ± 1.2 × 10^6 and the “Total Cells (× 10^6)” value (ICR male mice) was 19.7 ± 1.6 × 10^6.
For `Cc1nn(C)c2ncc(C(=O)NC(=O)Nc3ccc(C(=O)N4CCOCC4)c(Cl)c3)cc12` [Compound 141], the “Percent Swelling day 18” value (female Lewis rats [1]; 10 mg/kg i.p. once a day for 18 days) was 12.3 ± 1.5 %.
For `Cc1nn(C)c2ncc(C(=O)NC(=O)Nc3ccc(Cl)c(Cl)c3)c(Cl)c12` [Compound 37, N-{[(3,4-dichlorophenyl)amino]carbonyl}(4-chloro-1,3-Dimethylpyrazolo[5,4-b]pyridin-5-yl)carboxamide], the IC50 (hMCP-1 [4]) was 12.7 µM.
With `Cc1nn(C)c2ncc(C(=O)NC(=O)Nc3ccc(F)c(C(F)(F)F)c3)c(N3CCN(C)CC3)c12.Cl` [Compound 85, [1,3-Dimethyl-4-(4-methylpiperazinyl)pyrazolo[5,4-b]pyridin-5-yl]-N-({[4-fluoro-3-(trifluoromethyl)phenyl]amino}carbonyl)carboxamide hydrochloride] the “Urinary Protein (mg/mg creatinine)” value (male Wistar rats [5]; 0.1 mg/kg per os) was 33.4 ± 5.1 mg/mg creatinine, the “Urinary Protein (mg/mg creatinine)” value (male Wistar rats [5]; 1 mg/kg per os) was 32.4 ± 5.9 mg/mg creatinine and the “Urinary Protein (mg/mg creatinine)” value (male Wistar rats [5]; 10 mg/kg per os) was 23.5 ± 7.2 mg/mg creatinine. For the same compound, the IC50 (hMCP-1 [6]) was 0.09 µM, the “Percent Swelling (foot pad)” value (male Lewis rats; day 11 after immunization) was 39% and the “Percent Swelling (foot pad)” value (male Lewis rats; day 14 after immunization) was 40%. For the same compound, the “Percent Swelling (foot pad)” value (male Lewis rats; day 17 after immunization) was 34%, the “Percent Swelling (foot pad)” value (male Lewis rats; day 21 after immunization) was 30% and the “Percent Swelling (foot pad)” value (male Lewis rats; day 22 after immunization) was 26%. For the same compound, the “Percent Swelling (foot pad)” value (male Lewis rats; day 26 after immunization) was 27%.
